Columns and labels:
ENPP1 [1] = target: T1, ENPP1 (Homo sapiens, UniProt P22413); assay: surface plasmon resonance; format: binding
T1 construct: purified ENPP1 protein for PTS, enzyme assay and SPR
T1 sequence (P22413 1-925): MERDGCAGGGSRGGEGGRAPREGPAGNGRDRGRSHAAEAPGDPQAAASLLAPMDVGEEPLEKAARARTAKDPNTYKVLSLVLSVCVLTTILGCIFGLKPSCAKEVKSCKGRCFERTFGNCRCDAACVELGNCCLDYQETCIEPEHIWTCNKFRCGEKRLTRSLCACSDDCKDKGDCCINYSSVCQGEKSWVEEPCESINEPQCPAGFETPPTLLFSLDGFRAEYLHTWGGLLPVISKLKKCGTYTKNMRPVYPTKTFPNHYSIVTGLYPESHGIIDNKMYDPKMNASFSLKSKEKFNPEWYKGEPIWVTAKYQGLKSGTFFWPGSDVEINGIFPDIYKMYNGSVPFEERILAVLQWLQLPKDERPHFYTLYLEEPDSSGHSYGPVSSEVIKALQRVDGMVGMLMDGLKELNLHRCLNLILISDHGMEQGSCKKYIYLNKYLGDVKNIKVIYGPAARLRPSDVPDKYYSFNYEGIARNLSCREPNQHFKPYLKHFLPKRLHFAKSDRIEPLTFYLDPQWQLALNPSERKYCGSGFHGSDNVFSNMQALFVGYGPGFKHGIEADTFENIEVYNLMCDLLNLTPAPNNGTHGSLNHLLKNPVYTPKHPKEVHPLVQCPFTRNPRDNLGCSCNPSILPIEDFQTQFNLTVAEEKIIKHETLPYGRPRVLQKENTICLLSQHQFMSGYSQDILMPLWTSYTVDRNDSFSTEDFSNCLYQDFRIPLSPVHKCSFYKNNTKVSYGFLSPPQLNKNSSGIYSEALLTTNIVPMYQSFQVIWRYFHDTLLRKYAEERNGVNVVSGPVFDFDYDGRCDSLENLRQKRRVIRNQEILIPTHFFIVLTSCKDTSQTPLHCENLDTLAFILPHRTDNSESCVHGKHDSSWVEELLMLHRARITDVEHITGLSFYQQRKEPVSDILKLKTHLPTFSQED

ENPP1 [2] = target: T1, ENPP1; assay: in vitro enzyme activity assay; format: biochemical
ALDH1B1 [3] = target: T2, ALDH1B1 (Homo sapiens, UniProt P30837); assay: surface plasmon resonance; format: binding
T2 construct: purified ALDH1B1 protein, wild type and alanine mutants
T2 sequence (P30837 18-517): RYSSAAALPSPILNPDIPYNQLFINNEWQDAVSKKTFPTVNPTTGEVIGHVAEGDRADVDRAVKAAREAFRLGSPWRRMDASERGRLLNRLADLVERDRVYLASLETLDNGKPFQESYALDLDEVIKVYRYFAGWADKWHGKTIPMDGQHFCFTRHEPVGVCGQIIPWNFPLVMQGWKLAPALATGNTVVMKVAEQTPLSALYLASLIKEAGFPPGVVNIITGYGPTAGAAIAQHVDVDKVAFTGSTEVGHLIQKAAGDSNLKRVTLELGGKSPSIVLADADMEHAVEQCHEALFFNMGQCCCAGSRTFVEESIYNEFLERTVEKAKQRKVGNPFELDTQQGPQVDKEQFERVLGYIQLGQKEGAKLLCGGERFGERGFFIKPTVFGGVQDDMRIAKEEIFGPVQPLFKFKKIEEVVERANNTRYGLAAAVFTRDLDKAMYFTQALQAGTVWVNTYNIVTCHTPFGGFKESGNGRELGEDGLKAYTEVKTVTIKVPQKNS

ALDH1B1 [4] = target: T2, ALDH1B1; assay: in vitro enzyme activity assay; format: biochemical

Row | Kd (ENPP1 [1]) | IC50 (ENPP1 [2]) | SMILES | Kd (ALDH1B1 [3]) | IC50 (ALDH1B1 [4])
1 | 1030 nM | 2280 nM | COc1cccc(F)c1-c1nc(C(=O)Nc2ccccc2N2CCC(NS(N)(=O)=O)CC2)cn2ccnc12 [A2] |  | 
2 |  |  | Fc1cc(F)c2c(c1)[C@@H]1C=CC[C@@H]1[C@H](c1cccnc1)N2 [B1] | 15.2 nM | 20 nM
3 |  |  | Fc1cc(F)c2c(c1)[C@H]1C=CC[C@H]1[C@@H](c1cccnc1)N2 [B2] | 1210 nM | 5570 nM

From publication doi:10.1101/2025.06.04.657800v3, “Advancing Ligand Binding Affinity Prediction with Cartesian Tensor-Based Deep Learning” (biorxiv, 2025)
